Experimental data reported in paper PMC5595280, “Cytotoxicity and anti-tumor effects of new ruthenium complexes on triple negative breast cancer cells” (PLoS ONE, 2017).

System: MCF-7 cells
Test: MTT cell proliferation assay
Assay type: cell-based, human
Conditions: 24 h of incubation, read-out: IC50 ±SEM MCF-7
Method: MDA-MB-231 human breast tumor cells and MCF7 human breast tumor cells, obtained from Rio de Janeiro Cell Bank, were maintained at 37°C in 5% CO2 in DMEM medium containing fetal bovine serum (FBS) 10% (Vitrocell). MCF-10A, a non-tumor breast cell line, obtained from Rio de Janeiro Cell Bank, was cultivated in DMEM/F12 medium containing horse serum (HS) 5%, EGF (0.02 mg/mL); hydrocortisone (0.05 mg/mL); cholera toxin (0.001 mg/mL) and insulin (0.01 mg/mL). Both media contained penicillin (100 UI/mL), streptomycin ([…]) and L-glutamine (2 mM).
Proliferation assays were performed as described earlier. Briefly, cells lines were prepared in a concentration of 1x10^4 cells/100 μL, in complete medium (with 10% FBS), and plated on sterile 96-well plates for 24 h. The culture medium was removed from the wells and a new one, supplemented with 10% FBS and containing different concentrations of (1) [Ru(SO4)(dppb)(bipy)] (2) [Ru(CO3)(dppb)(bipy)], (3), [Ru(C2O4)(dppb)(bipy)], or (4) [Ru(CH3CO2)(dppb)(bipy)]PF6, was added to the wells. Cells were incubated for 24 h under the same conditions as described above. Cell proliferation assay was performed in comparison with untreated control. After incubation, the culture medium of each well was removed and a solution containing MTT (1 mg/mL) was added (100 μL/well). The plates were then kept at 37°C for 4 h and the formed crystals were dissolved in DMSO. The absorbance was read on an ELISA plate reader at a wavelength of 540 nm. […] The selectivity index (SI) was calculated as the ratio IC50 (MCF-10A) / IC50 (MDA-MB-231).
Each experiment was repeated three times in triplicate and a standard error mean was calculated. Shapiro-Wilk’s test was used to verify data normality. As normal distribution was present, the results were compared statistically with a one-way or two-way analysis of variance (ANOVA). […] The data were analysed and IC50 calculations were made using Hill’s equation in the GraphPad Prism software (version 6.05).

CC(=O)[O-].F[P-](F)(F)(F)(F)F.[Ru+2].c1ccc(-c2ccccn2)nc1.c1ccc(P(CCCCP(c2ccccc2)c2ccccc2)c2ccccc2)cc1 [Complex (4), [Ru(CH3CO2)(dppb)(bipy)]PF6]
IC50: > 200 µM
